Read-outs that look alike come from different tables or passages of the source.
System: CFA-induced pain model
Test: Antiallodynic activity on Complete Freund's Adjuvant (CFA)-induced inflammatory pain model (von Frey)
Assay type: in vivo, Sprague-Dawley rats
Conditions: rat, intraperitoneal; for response vs control in vivo at 60 mg/kg / response vs control in vivo at 40 mg/kg / response vs control in vivo at 18 mg/kg: Rattus norvegicus, ip, read-out: CFA model: effect (%) at the concentration administered
Experimental: Male, Sprague-Dawley rats (200-220 g, Nara Bio, Korea) were habituated for 1 week before surgery and allowed free access to food and water throughout the experimentation. Room temperature and humidity were maintained at 24±2° C. and 50±10%, respectively.
CFA-induced inflammatory pain was induced by the procedure of Nagakura et al. (2003) and Gregory P. et al. (2010) with minor modifications. CFA (sigma, USA) was injected in the left plantar with a 100 ul volume under gaseous anesthesia with isoflurane a 4:4 flow ratio of NO2 Sham controls were injected with 100 ul of saline and vehicle controls were identical to CFA infusion model, except for administration of vehicles.
Tactile sensitivity (Mechanical allodynia) was evaluated using von Frey monofilaments before and after treatment, and animals were used withdrawal threshold value was less than 4 g. One week after surgery, CFA-infused animals (n=4˜6), sham-operated animals (n=12), and vehicle-operated animals (n=17) were tested for tactile sensitivity with von Frey monofilaments 3 trials in each animal. All Animals were placed in a stainless steel mashed chamber and habituated for 30 min in the test box. The tactile sensitivity for ipsilateral hind paw was measured using the up-and-down method (Dixon, 1980) with seven von Frey monofilaments (0.4, 1, 2, 4, 6, 8, and 15 g) to 3 trials. Tactile sensitivity test was followed by Dixon's method (Dixon, 1980). The 50% paw withdrawal threshold for each paw was calculated using the following formula: [Xth] log=[vFr] log+ky where [vFr] is the force of the last von Frey used, k=0.2249 which is the average interval (in log units) between the von Frey monofilaments, and y is a value that depends upon the pattern of withdrawal responses (Dixon, 1980).
[…] The test was performed peak time of efficacy (0.5 hr) after compound administration.
The relative values compared to the sham (% control) were calculated and shown in Table 4, which show an antiallodynic effect of the compound of Examples on CFA-induced pain model in rats.

| SMILES | response vs control in vivo at 60 mg/kg (0.5 h, 60 mg/kg, 0.5 h) [%] | response vs control in vivo at 40 mg/kg (0.5 h, 0.5 h) [%] | further results |
| --- | --- | --- | --- |
| CC1(C)OC(COS(N)(=O)=O)C(c2ccncc2Cl)O1 (stereo not drawn) [Example 173, (5-(3-chloropyridin-4-yl)-2,2-dimethyl-1,3-dioxolan-4-yl)methyl sulfamate] | 33.9 |  |  |
| CNc1ccccc1[C@@H]1OC(C)(C)O[C@H]1COS(=O)(=O)NC [Example 104, ((4S, 5S)-5-(2-methylaminophenyl)-2,2-dimethyl-1,3-dioxolan-4-yl)methyl methylsulfamate] |  | 24.1 |  |
| NS(=O)(=O)OCC[C@@H]1OC2(CCCC2)O[C@H]1c1ccccc1Cl [Example 158, 2-((2S,3S)-3-(2-chlorophenyl)-1.4-dioxaspiro[4,4]nonan-2-yl)ethyl sulfamate] |  | 29.8 |  |
| CCC1(CC)O[C@@H](COS(N)(=O)=O)[C@H](c2ccccc2)O1 [Example 108, ((4S,5S)-5-phenyl-2,2-diethyl-1,3-dioxolan-4-yl)methyl sulfamate] |  | 37.5 |  |
| CC1(C)O[C@@H](CCOS(N)(=O)=O)[C@H](c2ccccc2)O1 [Example 130, 2-((4S,5S)-5-phenyl-2,2-dimethyl-1,3-dioxolan-4-yl)ethyl sulfamate] |  | 19.4 |  |
| NS(=O)(=O)OC[C@@H]1OC2(CCCC2)O[C@H]1c1ccccc1Cl [Example 10, ((2S,3S)-3-(2-chlorophenyl)-1,4-dioxaspiro[4,4]nonan-2-yl)methyl sulfamate] | 20.7 |  |  |
| CC1(C)O[C@H](CCOS(N)(=O)=O)[C@@H](Cc2ccccc2)O1 [Example 114, 2-((4R,5R)-5-benzyl-2,2-dimethyl-1,3-dioxolan-4-yl)ethyl sulfamate] |  | 29.8 |  |
| CCC1(CC)O[C@@H](COS(N)(=O)=O)[C@H](c2ccccc2N)O1 [Example 70, ((4S,5S)-5-(2-aminophenyl)-2,2-diethyl-1,3-dioxolan-4-yl)methyl sulfamate] |  | 18.8 |  |
| CC1(C)O[C@@H](COS(N)(=O)=O)[C@H](c2c(Cl)cccc2Cl)O1 [Example 52, ((4S,5S)-5-(2,6-dichlorophenyl)-2,2-dimethyl-1,3-dioxolan-4-yl)methyl sulfamate] | 33.3 |  |  |
| CC1(C)O[C@@H](COS(N)(=O)=O)[C@H](c2ccc(Cl)cc2Cl)O1 [Example 40, ((4S,5S)-5-(2,4-dichlorophenyl)-2,2-dimethyl-1,3-dioxolan-4-yl)methyl sulfamate] | 22.5 |  |  |
| Nc1ccccc1[C@@H]1OC2(CCCCC2)O[C@H]1COS(N)(=O)=O [Example 74, ((2S,3S)-3-(2-aminophenyl)-1,4-dioxaspiro[4,5]decan-2-yl)methyl sulfamate] | 37.1 |  |  |
| NS(=O)(=O)OCC[C@@H]1OC2(CCCCC2)O[C@H]1c1ccccc1 [Example 136, 2-((2S,3S)-3-phenyl-1,4-dioxaspiro[4,5]decan-2-yl)ethyl sulfamate] |  |  | response vs control in vivo at 18 mg/kg (0.5 h, 0.5 h): 32.4% |
| NS(=O)(=O)OCC[C@@H]1OC2(CCCCC2)O[C@H]1c1ccccc1Cl [Example 160, 2-((2S,3S)-3-(2-chlorophenyl)-1,4-dioxaspiro[4,5]decan-2-yl)ethyl sulfamate] |  | 38.4 |  |
| CC1(C)O[C@H](c2cnc(Cl)s2)[C@@H](COS(N)(=O)=O)O1 (stereo in doubt) [Example 166, ((4R,5S)-5-(2-chlorothiazol-5-yl)-2,2-dimethyl-1,3-dioxolan-4-yl)methyl sulfamate] | 30.4 |  |  |
| CC1(C)OC(COS(N)(=O)=O)C(c2ccccc2Cl)O1 (mixture of isomers) [Example 3, (5-(2-chlorophenyl)-2,2-dimethyl-1,3-dioxolan-4-yl)methyl sulfamate(SS & RR mixture)] |  |  | CFA model: effect (%) at the concentration administered (60 mg/kg, 0.5 h): ^#60 (24.0%, 0.5 h) |
| CC1(C)O[C@@H](COS(N)(=O)=O)[C@H](c2ccc(Cl)s2)O1 [Example 172, ((4S,5R)-2,2-dimethyl-5-(5-chlorothiophen-2-yl)-1,3-dioxolan-4-yl)methyl sulfamate] | 35.9 |  |  |
| CC1(C)O[C@@H](CCOS(N)(=O)=O)[C@H](c2ccccc2Cl)O1 [Example 154, 2-((4S,5S)-5-(2-chlorophenyl)-2,2-dimethyl-1,3-dioxolan-4-yl)ethyl sulfamate] |  | 32.1 |  |
| CCC1(CC)O[C@@H](CCOS(N)(=O)=O)[C@H](c2ccccc2Cl)O1 [Example 156, 2-((4S,5S)-5-(2-chlorophenyl)-2,2-diethyl-1,3-dioxolan-4-yl)ethyl sulfamate] |  | 30.8 |  |

| SMILES | response vs control in vivo at 60 mg/kg (0.5 h, 60 mg/kg, 0.5 h) [%] | response vs control in vivo at 40 mg/kg (0.5 h, 0.5 h) [%] | further results |
| --- | --- | --- | --- |
| Cc1ncsc1[C@@H]1OC(C)(C)O[C@H]1COS(N)(=O)=O [Example 168, ((4S,5R)-2,2-dimethyl-5-(4-methylthiazol-5-yl)-1,3-dioxolan-4-yl)methyl sulfamate] | 77.2 |  |  |
| NS(=O)(=O)OCC[C@@H]1OC2(CCCC2)O[C@H]1c1ccccc1 [Example 134, 2-((2S,3S)-3-phenyl-1,4-dioxaspiro[4,4]nonan-2-yl)ethyl sulfamate] |  |  | response vs control in vivo at 18 mg/kg (0.5 h, 0.5 h): 71.1% |
| CC1(C)O[C@@H](COS(N)(=O)=O)[C@H](c2ccccc2N)O1 [Example 66] |  |  | response vs control in vivo at 60 mg/kg (1 h, 60 mg/kg, 1 h): 16.5% |
| CC1(C)OC(COS(N)(=O)=O)C(c2cncnc2)O1 (stereo not drawn) [Example 175, 2,2-dimethyl-5-(pyrimidin-5-yl)-1,3-dioxolan-4-yl)methyl sulfamate] | 44.4 |  |  |
| CC1O[C@@H](COS(N)(=O)=O)[C@H](c2ccccc2Cl)O1 (stereo partly drawn) [Example 6, ((4S,5S)-5-(2-chlorophenyl)-2-methyl-1,3-dioxolan-4-yl)methyl sulfamate] | 22.4 |  |  |
| NS(=O)(=O)OC[C@H]1OC2(CCCC2)O[C@@H]1Cc1ccccc1Cl [Example 150, ((2R,3R)-3-(2-chlorobenzyl)-1,4-dioxaspiro[4,4]nonan-2-yl)methyl sulfamate] |  | 17.6 |  |
| NS(=O)(=O)OC[C@@H]1OC2(CCCC2)O[C@H]1c1ccccc1 [Example 110, ((2S,3S)-3-phenyl-1,4-dioxaspiro[4,4]nonan-2-yl)methyl sulfamate] |  | 42.7 |  |
| NS(=O)(=O)OC[C@@H]1OC2(CCCCC2)O[C@H]1c1ccccc1Cl [Example 12, ((2S,3S)-3-(2-chlorophenyl)-1,4-dioxaspiro[4,5]decan-2-yl)methyl sulfamate] |  |  | response vs control in vivo at 18 mg/kg (0.5 h, 0.5 h): 48.8% |
| NS(=O)(=O)OCC[C@H]1OC2(CCCCC2)O[C@@H]1Cc1ccccc1Cl [Example 144, 2-((2R,3R)-3-(2-chlorobenzyl)-1,4-dioxaspiro[4,5]decan-2-yl)ethyl sulfamate] |  | 36.6 |  |
| NS(=O)(=O)OCC[C@H]1OC2(CCCCC2)O[C@@H]1Cc1ccccc1 [Example 120, 2-((2R,3R)-3-benzyl-1,4-dioxaspiro[4,5]decan-2-yl)ethyl sulfamate] |  | 23 |  |
| NS(=O)(=O)OC[C@@H]1OC2(CCCCC2)O[C@H]1c1ccccc1 [Example 112, ((2S,3S)-3-phenyl-1,4-dioxaspiro[4,5]decan-2-yl)methyl sulfamate] |  | 41.1 |  |
| CC1(C)OC(COS(N)(=O)=O)C(c2cnc(Cl)nc2)O1 (stereo not drawn) [Example 176, (2,2-dimethyl-5-(2-chloropyrimidin-5-yl)-1,3-dioxolan-4-yl)methyl sulfamate] | 40 |  |  |
| NS(=O)(=O)OC[C@H]1OC2(CCCCC2)O[C@@H]1Cc1ccccc1 [Example 128, ((2R,3R)-3-benzyl-1,4-dioxaspiro[4,5]decan-2-yl)methyl sulfamate] |  |  | response vs control in vivo at 18 mg/kg (0.5 h, 0.5 h): 24.5% |
| NS(=O)(=O)OC[C@H]1OC2(CCCC2)O[C@@H]1Cc1ccccc1 [Example 126, ((2R,3R)-3-benzyl-1,4-dioxaspiro[4,4]nonan-2-yl)methyl sulfamate] |  | 43.5 |  |
| CCC1(CC)O[C@H](CCOS(N)(=O)=O)[C@@H](Cc2ccccc2Cl)O1 [Example 140, 2-((4R,5R)-5-(2-chlorobenzyl)-2,2-diethyl-1,3-dioxolan-4-yl)ethyl sulfamate] |  | 37.4 |  |
| CC1(C)O[C@H](c2ccccc2Cl)[C@@H](COS(N)(=O)=O)O1 [Example 1, ((4R,5R)-5-(2-chlorophenyl)-2,2-dimethyl-1,3-dioxolan-4-yl)methyl sulfamate] | 21.1 |  |  |
| NS(=O)(=O)OC[C@@H]1OC(=O)O[C@H]1c1ccccc1[N+](=O)[O-] [Example 90, ((4S, 5S)-5-(2-nitrophenyl)-2-oxo-1,3-dioxolan-4-yl)methyl sulfamate] | 15.6 |  |  |
| CCC1(CC)O[C@H](CCOS(N)(=O)=O)[C@@H](Cc2ccccc2)O1 [Example 116, 2-((4R,5R)-5-benzyl-2,2-diethyl-1,3-dioxolan-4-yl)ethyl sulfamate] |  | 14.5 |  |
